# Measurements as given in patent US7589095B2, “4-phenyl-pyrimidine-2-carbonitrile derivatives” (N.V. Organon, priority 2004, dated 2009).
# System: not given
# Experiment: not given
# Settings: not given
row,melting point [°C],Structure (SMILES)
1,64,"CCCc1cc(-c2cccc(C(C)C)c2)nc(C#N)n1 [Example 5a, 4-(3-Isopropyl-phenyl)-6-propyl-pyrimidine-2-carbonitrile]"
2,112,"CCCc1cc(-c2cc(C(F)(F)F)cc(C(F)(F)F)c2)nc(C#N)n1 [Example 6a, 4-(3,5-Bis-trifluoromethyl-phenyl)-6-propyl-pyrimidine-2-carbonitrile]"

# Molecular target: T1, recombinant human Cathepsin K (Homo sapiens, UniProt P43235)
# T1 sequence (P43235 115-329): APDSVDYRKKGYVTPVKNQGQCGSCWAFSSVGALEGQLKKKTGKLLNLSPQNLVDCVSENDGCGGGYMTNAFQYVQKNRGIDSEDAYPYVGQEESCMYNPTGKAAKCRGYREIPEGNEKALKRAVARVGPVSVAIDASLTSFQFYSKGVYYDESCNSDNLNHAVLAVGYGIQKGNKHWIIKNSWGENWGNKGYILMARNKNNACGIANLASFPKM
# Experiment: Cathepsin K activity: inhibition of recombinant human Cathepsin K, fluorogenic substrate Z-Phe-Arg-AMC
# Assay type: biochemical
# Settings: pH5.5, fluorescence at 10 minutes, read-out: pIC50 (negative logarithm of the IC50 concentration) for inhibition of human cathepsin K (converted)
# Description: To a 384 well microtitre plate is added 5 μl of a 100 μM solution of test compound in assay buffer (100 mM sodium acetate pH5.5, 5 mM EDTA, 5 mM dithiothreitol) with 10% dimethylsulfoxide (DMSO), plus 10 μl of 100 μM solution of the substrate Z-Phe-Arg-AMC (Bachem; 7-amido-coumarine derivative of the dipeptide N-benzyloxycarbonyl-Phe-Arg-OH) in assay buffer and 25 μl of assay buffer. 10 μl of a 1 mg/l solution of activated recombinant human cathepsin K, in assay buffer, is then added to the well, yielding a final inhibitor concentration of 10 μM.
# Enzyme activity is determined by measuring the fluorescence of the liberated aminomethylcoumarin at […] using […] excitation, at 10 minutes. Percentage enzyme activity is calculated by comparison of this activity to that of a solution containing no inhibitor.
row,Structure (SMILES),IC50 [nM]
1,"N#Cc1nc(CCCN2CCN(c3ccccn3)CC2)cc(-c2cccc(C(F)(F)F)c2)n1 [4a′, 4-[3-(4-Pyridin-2-yl-piperazin-1-yl)-propyl]-6-(3-trifluoromethylphenyl)-pyrimidine-2-carbonitrile]",< 10
2,"CCCc1nc(C#N)nc(-c2cccc(C(F)(F)F)c2)c1C [Example 2, 5-Methyl-4-propyl-6-(3-trifluoromethylphenyl)-pyrimidine-2-carbonitrile]",< 100
3,"N#Cc1nc(CCCN2CCCCC2)cc(-c2cccc(C(F)(F)F)c2)n1 [Example 4a, 4-(3-Piperidin-1-yl-propyl)-6-(3-trifluoromethylphenyl)-pyrimidine-2-carbonitrile]",< 10
4,"CN1CCN(CCCc2cc(-c3cccc(C(F)(F)F)c3)nc(C#N)n2)CC1 [Example 4d, 4-[3-(4-Methyl-piperazin-1-yl)-propyl]-6-(3-trifluoromethylphenyl)-pyrimidine-2-carbonitrile]",< 10
5,"N#Cc1nc(CCCNC2CCCCC2)cc(-c2cccc(C(F)(F)F)c2)n1 [Example 4e, 4-(3-Cyclohexylamino-propyl)-6-(3-trifluoromethylphenyl)-pyrimidine-2-carbonitrile]",< 10
6,"CC(C)NCCCc1cc(-c2cccc(C(F)(F)F)c2)nc(C#N)n1 [Example 4f, 4-(3-isopropylamino-propyl)-6-(3-trifluoromethylphenyl)-pyrimidine-2-carbonitrile]",< 10
7,"CN(CCCc1cc(-c2cccc(C(F)(F)F)c2)nc(C#N)n1)Cc1ccccc1 [Example 4g, 4-[3-(Benzyl-methyl-amino)-propyl]-6-(3-trifluoromethylphenyl)-pyrimidine-2-carbonitrile]",< 10
8,"CC(C)CNCCCc1cc(-c2cccc(C(F)(F)F)c2)nc(C#N)n1 [Example 4h, 4-(3-Isobutylamino-propyl)-6-(3-trifluoromethylphenyl)-pyrimidine-2-carbonitrile]",< 100
9,"N#Cc1nc(CCCNCc2ccncc2)cc(-c2cccc(C(F)(F)F)c2)n1 [Example 4i, 4-{3-[(Pyridin-4-ylmethyl)-amino]-propyl}-6-(3-trifluoromethylphenyl)-pyrimidine-2-carbonitrile]",< 10
10,"CCC(CC)NCCCc1cc(-c2cccc(C(F)(F)F)c2)nc(C#N)n1 [Example 4r, 4-[3-(1-Ethyl-propylamino)-propyl]-6-(3-trifluoromethylphenyl)-pyrimidine-2-carbonitrile]",< 10
11,"CN1CCC(N(C)CCCc2cc(-c3cccc(C(F)(F)F)c3)nc(C#N)n2)CC1 [Example 4s, 4-{3-[Methyl-(1-methyl-piperidin-4-yl)-amino]-propyl}-6-(3-trifluoromethylphenyl)-pyrimidine-2-carbonitrile]",< 10
12,"CN1CCCN(CCCc2cc(-c3cccc(C(F)(F)F)c3)nc(C#N)n2)CC1 [Example 4u, 4-[3-(4-Methyl-[1,4]diazepan-1-yl)-propyl]-6-(3-trifluoromethylphenyl)-pyrimidine-2-carbonitrile]",< 10

# Results, then the molecule that gave them:
row,IC50 [nM],Structure (SMILES)
1,< 10,"CNC(=O)CNCCCc1cc(-c2cccc(C(F)(F)F)c2)nc(C#N)n1 [Example 8a, 4-[3-(Methylcarbamoylmethyl-amino)-propyl]-6-(3-trifluoromethylphenyl)-pyrimidine-2-carbonitrile]"
2,< 10,"CC(=O)NCCNCCCc1cc(-c2ccc(C)c(C)c2)nc(C#N)n1 [Example 14j, 4-[3-(2-Acetylamino-ethylamino)-propyl]-6-(3,4-dimethyl-phenyl)-pyrimidine-2-carbonitrile]"
3,< 10,"Cc1ccc(-c2cc(CCCNCCN3CCNC3=O)nc(C#N)n2)cc1C [Example 14n, 4-(3,4-Dimethyl-phenyl)-6-{3-[2-(2-oxo-imidazolidin-1-yl)-ethylamino]-propyl}-pyrimidine-2-carbonitrile]"
